Broadly, the IC50 is the concentration at which inhibition is half-maximal.

Here are results for six compounds from patent publication US20240108744A1, “AURISTATIN DERIVATIVES AND CONJUGATES THEREOF” (priority 2022, published 2024).

Like-named read-outs stand apart in the source and are kept apart here. Square brackets hold non-standard residues; d marks the D form. Peptide text beside a SMILES is read from it. * marks the point of attachment. Dolaproine = CO[C@@H]([C@@H]1CCCN1)[C@@H](C)C(=O)O; Phe(βS-OH) = N[C@H](C(=O)O)[C@@H](O)c1ccccc1; Dil = CC[C@H](C)[C@H](NC)[C@@H](CC(=O)O)OC; X1 = CC(C)[C@@H](C(=O)*)N(C)CCS; X2 = CSCCN(C)[C@H](C(=O)*)C(C)C Some results are limits rather than exact numbers.

Holding throughout (type): cell-based
Experiment [1] concerns SK-OV-3. The experiment in a line: In vitro cytotoxicity (CCK-8) in SK-OV-3 cells. Conditions: Homo sapiens. As for the experimental part: (§1) Cytotoxic potencies of the compounds are assessed in flat-bottomed 96-well cell culture plates (Corning Costar) using cell counting Kit-8 (CCK-8) assay (Shanghai Life Lab Biotech Co., Ltd.). Briefly, human tumor cells (1,000-10,000 cells/well, depending on the cell line), in the appropriate culture medium are incubated, with the compounds, or with conjugates in the presence or absence of an excess of the corresponding unconjugated antibodies, for 120 hours, at 37° C., 5% CO2.
(§2) Dispensed 175 μL cell suspension in 96-well plate at 1500 cells per well and incubate for 24 hours in a humidified incubator (37° C., 5% CO2). Added 25 μL various concentrations of compound as a 5× solution into the cell culture medium (Fetal bovine serum, Invitrogen) in the plate and incubated for 120 hours in the incubator. Thawed CCK-8 on the bench top or in a 37° C. water bath, added 10 μL of CCK-8 to each well of the incubated plate (be careful not introducing air bubbles into the wells since they would interfere with the O. D. reading) and then further incubated for 1-4 hours in the incubator. Measured the absorbance at 450 nm using a SpectraMax i3x Microplate Reader and calculated the cell inhibition rate. The IC50 curves were generated along with the IC50 values by using GraphPad Prism software.

Experiment [2] deals with NCI-H2110. The experiment in a line: In vitro cytotoxicity (CCK-8) in NCI-H2110 cells. Conditions: Homo sapiens. As for the experimental part:
as §1, §2

Experiment [3] concerns HCC 827. The experiment in a line: In vitro cytotoxicity (CCK-8) in HCC 827 cells. Conditions: Homo sapiens. As for the experimental part: as §1, §2
In experiment [4] the test system is OVCAR-3. The experiment in a line: In vitro cytotoxicity (CCK-8) in OVCAR-3 cells. Conditions: Homo sapiens. As for the experimental part:
as §1, §2

Experiment [5] deals with SK-BR-3. The experiment in a line: In vitro cytotoxicity (CCK-8) in SK-BR-3 cells. Particulars: Homo sapiens, SK-BR-3 cell line, 120 hours incubation. As for the experimental part:
as §1, §2

The subject of experiment [6] is NCI-N87. The experiment in a line: In vitro cytotoxicity (CCK-8) in NCI-N87 cells. Particulars: Homo sapiens, NCI-N87 cell line, 120 hours incubation. As for the experimental part:
as §1, §2

Experiment [7] has as its system JMT-1. The experiment in a line: In vitro cytotoxicity (CCK-8) in JMT-1 cells. Conditions: Homo sapiens, JMT-1 cell line, 120 hours incubation. As for the experimental part: as §1, §2
In experiment [8] the test system is BR 474. Description: In vitro cytotoxicity (CCK-8) in BR 474 cells. Conditions: Homo sapiens, BR 474 cell line, 120 hours incubation. As for the experimental part: as §1, §2
The mark [9] stands for this setting: SK-OV-3 cell line, 120 hours incubation, CCK-8, read-out: IC50.
Where [10] appears, read: NCI-H2110 cell line, 120 hours incubation, CCK-8, read-out: IC50.
The mark [11] stands for this setting: HCC827, HCC 827 cell line, 120 hours incubation, CCK-8, read-out: IC50.
Setting [12] is: OVCAR-3 cell line, 120 hours incubation, CCK-8, read-out: IC50.

As to `CC[C@H](C)[C@@H]([C@@H](CC(=O)N1CCC[C@H]1[C@H](OC)[C@@H](C)C(=O)N[C@H](C(=O)O)[C@@H](O)c1ccccc1)OC)N(C)C(=O)[C@@H](NC(=O)[C@H](C(C)C)N(C)CCS)C(C)C` (X1-V[Dil][Dolaproine][Phe(βS-OH)]-OH), the IC50 in experiment [1] (setting [9]) is 38 nM; in experiment [2] (setting [10]) it was 12 nM; in experiment [3] (setting [11]), 108 nM; in experiment [4] (setting [12]) it was 67.6 nM.
As to `CC[C@@]1(O)C(=O)OCc2c1cc1n(c2=O)Cc2c-1nc1cc(F)c(C)c3c1c2[C@@H](NC(=O)CO)CC3`, the 50% inhibitory concentration (IC50) in experiment [1] (SK-OV-3, 120 h) was found to be 3.6 nM; in experiment [2] (NCI-H2110, 120 h), 4.1 nM; in experiment [3] (HCC827, 120 h) it was 1.8 nM; in experiment [4] (OVCAR-3, 120 h), 0.2 nM.
As to `CC[C@H](C)[C@@H]([C@@H](CC(=O)N1CCC[C@H]1[C@H](OC)[C@@H](C)C(=O)N[C@H](C(=O)O)[C@@H](O)c1ccccc1)OC)N(C)C(=O)[C@@H](NC(=O)[C@H](C(C)C)N(C)CCSC)C(C)C` (X2-V[Dil][Dolaproine][Phe(βS-OH)]-OH), the concentration for half-maximal inhibition (IC50) in experiment [5] was 13.6 nM; in experiment [6] it was 32.3 nM; in experiment [7], 36.1 nM.
`CC[C@H](C)[C@@H]([C@@H](CC(=O)N1CCC[C@H]1[C@H](OC)[C@@H](C)C(=O)N[C@H](C)[C@@H](O)c1ccccc1)OC)N(C)C(=O)[C@@H](NC(=O)[C@H](C(C)C)N(C)CCSC)C(C)C`: the IC50 in experiment [5] worked out at 0.41 nM; in experiment [6], 0.94 nM; in experiment [7], 0.49 nM.
Consider `CC[C@H](C)[C@@H]([C@@H](CC(=O)N1CCC[C@H]1[C@H](OC)[C@@H](C)C(=O)N[C@H](C)[C@@H](O)c1ccccc1)OC)N(C)C(=O)[C@@H](NC(=O)[C@H](C(C)C)N(C)CCS)C(C)C`, for which the IC50 in experiment [1] (setting [9]) was 7.7 nM; in experiment [2] (setting [10]) it was 10 nM; in experiment [5], 1.7 nM; in experiment [6], 4.8 nM; in experiment [8] it was 5.1 nM; in experiment [7], 2.1 nM.
Regarding `CC[C@@]1(O)C(=O)OCc2c1cc1n(c2=O)Cc2cc3c(CCCCO)c(C)c(F)cc3nc2-1`, the 50% inhibitory concentration (IC50) in experiment [1] (setting [9]) amounted to 0.36 nM; in experiment [2] (setting [10]) it was 0.85 nM; in experiment [3] (setting [11]), 0.78 nM; in experiment [4] (setting [12]), 0.1 nM; in experiment [5], 0.014 nM; in experiment [6], 2.6 nM. Also, the concentration for half-maximal inhibition (IC50) in experiment [8] is more than 1000 nM; in experiment [7] it was 14 nM.
